# In US20010051630A1, “Use of hydroxylamine derivatives, and method and preparations for increasing the tolerance of field crops against weather stresses” (priority 1997, published 2001):
# Marks after values point to notes of the source that are not given here.
# Experiments:
# Mo 17 inbred maize line = assay: CSVT (Complex Stressing Vigour Test), seeds soaked in active agent, Mo 17 maize; format: in vivo; details: seeds soaked in 10 mg/l active agent, * = significant vs control P < 0.05
# Method: (§1) In this experiment the tolerance of maize, soybean and pepper seeds treated with the active agent against cold was tested. This test imposed temperature and oxygen deficiency stresses on the seeds and was carried out according to Barla-Szabó and Dolinka CSVT (Complex Stressing Vigour Test). For a single test, two hundred seeds were soaked for 48 hours at 25° C. and another 48 hours at 5° C in 150 ml distilled water containing the active agent in 10 mg/l concentration. Following the 96 hours of soaking, the seeds were further germinated between rolled wet paper for 96 hours at 25° C. There were 25 seeds in each roll, the rolls were placed vertically into containers and covered with a plastic bag in order to reduce evaporation. During the whole procedure the seeds were kept in darkness. At the end of the experiment the number of normally developing and ungerminated seeds were recorded. The length of the normal seedlings was measured and the average length of the five longest seedlings was calculated. Seedlings longer than 0.33 times the average length of the five longest seedlings were considered to be of high vigour, and low vigour seedlings were shorter than this length.
# [1] = test system: maize of high chilling tolerance (HT) population; assay: CSVT, maize population of high chilling tolerance (HT); format: in vivo
# Method: as §1, with “darkness.” for “darkness. At the end of the experiment the number of normally developing and ungerminated seeds were recorded. The length of the normal seedlings was measured and the average length of the five longest seedlings was calculated. Seedlings longer than 0.33 times the average length of the five longest seedlings were considered to be of high vigour, and low vigour seedlings were shorter than this length.”
# (§2) At the end of the experiment the number of normally developing and ungerminated seeds were recorded. The length of the normal seedlings was measured and the average length of the five longest seedlings was calculated. Seedlings longer than 0.33 times the average length of the five longest seedlings were considered to be of high vigour, and low vigour seedlings were shorter than this length.
# (§3) In the case of a further experiment with maize of low chilling tolerance (LT) and high chilling tolerance (HT) populations [Ref: P. Landi, E. Frascaroli, A. Lovato; EUPHYTICA 64 21-29 (1992)], the following positive effects were found (Table 3.).
# [2] = test system: maize of low chilling tolerance (LT) population; assay: CSVT, maize population of low chilling tolerance (LT); format: in vivo
# Method: as §1, with “darkness.” for “darkness. At the end of the experiment the number of normally developing and ungerminated seeds were recorded. The length of the normal seedlings was measured and the average length of the five longest seedlings was calculated. Seedlings longer than 0.33 times the average length of the five longest seedlings were considered to be of high vigour, and low vigour seedlings were shorter than this length.”
# as §2, §3
# McCall soybeans = assay: CSVT with PVA-pearled McCall soybeans, relative length; format: in vivo, soybean; details: 2.5 mg in 1 ml 2.5% PVA per 100 seeds
# Method: as §1, with “darkness.” for “darkness. At the end of the experiment the number of normally developing and ungerminated seeds were recorded. The length of the normal seedlings was measured and the average length of the five longest seedlings was calculated. Seedlings longer than 0.33 times the average length of the five longest seedlings were considered to be of high vigour, and low vigour seedlings were shorter than this length.”
# In a further CSVT experiment also using McCall soybeans, polyvinylalcohol (PVA) was applied for pearling the seeds. The 2.5 mg doses of the active agents were dissolved in 1 ml of 2.5% PVA solution, and this quantity was applied to 100 pieces of seeds. The improvement of the chilling tolerance is observed by the significant elongation of the germ and the roots.
# Mo 17 maize inbred line = assay: Chilling tolerance of maize in a gradient chamber; format: in vivo
# Method: The experiment was performed using the Mo 17 maize inbred line. The seeds were coated with a 2% solution of the examined compound dissolved in 2 ml polyvinylalcohol before germination, where the above quantity of solution is applied for 100 seeds. The seeds were germinated for 3 days wrapped in wet filter paper, they were sown and then cultivated in gradient chamber for 6 weeks. In the gradient chamber, the temperature was maintained on a scale between 18 and 12° C., with differences of 1° C. This was followed by a one week regeneration at 23/20° C. temperature.
# In the experiment, the length of the plants was measured 16, 31 and 43 days after the sowing, and at the end of the experiment the fresh weight of the plants was measured. The experiment was performed on 4 plants at each temperature and by each treatment.
# soybean cv. Bólyi 44 = assay: Field soybean cultivation, yield; format: in vivo; details: for Weight of the crop (kg/m^2): seeds pearled with 1 mg active agent in 1 ml 5% PVA per 100 seeds; for Improvement compared to the control (%): weight of the crop
# Method: The experiment was performed using soybean cv. Bólyi 44. Before sowing, the seeds were treated with Rhyzobium Japonicum nitrogen-binding bacterium, which forms a root nodule providing 50-70% of the nitrogen demand of the plant.
# The examined compounds were applied by pearling the seeds; 1 ml of pearling agent containing 1 mg of active agent in a 5% aqueous PVA solution was used for 100 seeds.
# The plants were sown after soil preparation in the autumn, using a crop rotation system, 3-5 cm deep in the ground, with a 45-50 cm row distance, a 5 cm plant distance and 450,000-500,000 plant/ha density. The date of sowing was Apr. 15, 1997. During the development of the plant, the usual cultivation procedures were followed and the usual pesticides were used. The harvest took place in September-October, with the water content of the grains being between 16-18%.
# HMv09 inbred maize line = assay: CSVT, seeds soaked in active agent, HMv09 maize; format: in vivo; details: seeds soaked in 10 mg/l active agent
# Method: as §1
# Seaway bean cultivar = assay: Drought tolerance of beans, part a (5 days hardening); format: in vivo; details: 7 days without water, one week regeneration
# Excerpt: Based on the experiences of our preliminary experiments, the plants were hardened before the application of the active agent by withholding the water for a few days, until the first signs of withering appeared. Then the plants were watered and the active agent was either dissolved in the water, or sprayed to the plants directly. Afterwards, the plants were subjected to different periods of drought according to the given experiment, watered again, and after a week-long regeneration period, the survival ratio was determined.
# a) Seaway bean cultivar was hardened for 5 days by withholding the water. Afterwards the plantlets were watered for two days normally. During this time, a 10 mg/liter and 100 mg/liter concentration solution of the active agent was applied two times a day dissolved in water or by direct spraying. Then the water was withheld for 7 days, and after a week-long regeneration period, the survival ratio was determined.
compound,measurement,setting,value
"CCCCCCCCCCCCCCCC(=O)OC(CONC(=N)c1cccnc1)CN1CCCCC1.Cl (stereo not shown) [Compound 2, N-[2-palmitoyloxy-3-(1-piperidinyl)propoxy]-3-pyridinecarboximidamide Monohydrochloride]",Ratio of high vigour plants (%),Mo 17 inbred maize line,47* %
same,"Ratio of high vigour plants %, HT",[1],92* %
same,"Ratio of high vigour plants %, LT",[2],86* %
same,"Relative length (control = 100), germ",McCall soybeans,133
same,"Relative length (control = 100), root",McCall soybeans,150
"Cl.O=[N+]([O-])c1ccccc1C(Cl)=NOCC(O)CN1CCCCC1 (stereo not shown) [Compound 4, N-[2-hydroxy-3-(1-piperidinyl)propoxy]-2′-nitro-benzenecarboximidoyl Chloride Monohydrochloride]",Ratio of high vigour plants (%),Mo 17 inbred maize line,32* %
same,"Ratio of high vigour plants %, HT",[1],96* %
same,"Ratio of high vigour plants %, LT",[2],92* %
same,"Relative length (control = 100), germ",McCall soybeans,116
same,"Relative length (control = 100), root",McCall soybeans,135
same,Length (cm),"Mo 17 maize inbred line; 12° C., 16 days",5.8 cm
same,Length (cm),"Mo 17 maize inbred line; 12° C., 31 days",11.3 cm
same,"FW (g), fresh weight","Mo 17 maize inbred line; 12° C., 43 days",1.5 g
same,Length (cm),"Mo 17 maize inbred line; 12° C., 43 days",20.1 cm
same,Length (cm),"Mo 17 maize inbred line; 13° C., 16 days",7.4 cm
same,Length (cm),"Mo 17 maize inbred line; 13° C., 31 days",13.1 cm
same,"FW (g), fresh weight","Mo 17 maize inbred line; 13° C., 43 days",2.1 g
same,Length (cm),"Mo 17 maize inbred line; 13° C., 43 days",23.8 cm
same,Length (cm),"Mo 17 maize inbred line; 14° C., 16 days",9.7 cm
same,Length (cm),"Mo 17 maize inbred line; 14° C., 31 days",17.2 cm
same,"FW (g), fresh weight","Mo 17 maize inbred line; 14° C., 43 days",2.9 g
same,Length (cm),"Mo 17 maize inbred line; 14° C., 43 days",25.1 cm
same,Length (cm),"Mo 17 maize inbred line; 15° C., 16 days",10.2 cm
same,Length (cm),"Mo 17 maize inbred line; 15° C., 31 days",21.3 cm
same,"FW (g), fresh weight","Mo 17 maize inbred line; 15° C., 43 days",4.4 g
same,Length (cm),"Mo 17 maize inbred line; 15° C., 43 days",32.3 cm
same,Length (cm),"Mo 17 maize inbred line; 16° C., 16 days",15.4 cm
same,Length (cm),"Mo 17 maize inbred line; 16° C., 31 days",26.8 cm
same,"FW (g), fresh weight","Mo 17 maize inbred line; 16° C., 43 days",5.0 g
same,Length (cm),"Mo 17 maize inbred line; 16° C., 43 days",34.5 cm
same,Length (cm),"Mo 17 maize inbred line; 17° C., 16 days",19.7 cm
same,Length (cm),"Mo 17 maize inbred line; 17° C., 31 days",31.2 cm
same,"FW (g), fresh weight","Mo 17 maize inbred line; 17° C., 43 days",6.6 g
same,Length (cm),"Mo 17 maize inbred line; 17° C., 43 days",37.3 cm
same,Length (cm),"Mo 17 maize inbred line; 18° C., 16 days",15.0 cm
same,Length (cm),"Mo 17 maize inbred line; 18° C., 31 days",28.4 cm
same,"FW (g), fresh weight","Mo 17 maize inbred line; 18° C., 43 days",6.2 g
same,Length (cm),"Mo 17 maize inbred line; 18° C., 43 days",38.0 cm
same,Weight of the crop (kg/m^2),soybean cv. Bólyi 44,0.50 kg/m^2
same,Improvement compared to the control (%),soybean cv. Bólyi 44,11.1%
"CC(C)(C)NCC(O)CONC(=Nc1ccccc1)c1ccccc1.Cl (stereo not shown) [Compound 5, N-[[3-(1,1-dimethylethyl)-amino]-2-hydroxypropoxy]-N′-phenyl-benzamidine hydrochloride]",Ratio of high vigour plants (%),Mo 17 inbred maize line,35* %
same,Ratio of high vigour plants (%),HMv09 inbred maize line,57* %
same,"Relative length (control = 100), germ",McCall soybeans,127
same,"Relative length (control = 100), root",McCall soybeans,152
same,"survival (%), Watering (10 mg/l)",Seaway bean cultivar,25* %
same,"survival (%), Watering (100 mg/l)",Seaway bean cultivar,36* %
same,Length (cm),"Mo 17 maize inbred line; 12° C., 16 days",4.5 cm
same,Length (cm),"Mo 17 maize inbred line; 12° C., 31 days",10.9 cm
same,"FW (g), fresh weight","Mo 17 maize inbred line; 12° C., 43 days",2.0 g
same,Length (cm),"Mo 17 maize inbred line; 12° C., 43 days",25.5 cm
same,Length (cm),"Mo 17 maize inbred line; 13° C., 16 days",4.7 cm
same,Length (cm),"Mo 17 maize inbred line; 13° C., 31 days",10.0 cm
same,"FW (g), fresh weight","Mo 17 maize inbred line; 13° C., 43 days",1.1 g
same,Length (cm),"Mo 17 maize inbred line; 13° C., 43 days",18.5 cm
same,Length (cm),"Mo 17 maize inbred line; 14° C., 16 days",5.8 cm
same,Length (cm),"Mo 17 maize inbred line; 14° C., 31 days",11.6 cm
same,"FW (g), fresh weight","Mo 17 maize inbred line; 14° C., 43 days",1.3 g
same,Length (cm),"Mo 17 maize inbred line; 14° C., 43 days",20.3 cm
same,Length (cm),"Mo 17 maize inbred line; 15° C., 16 days",9.5 cm
same,Length (cm),"Mo 17 maize inbred line; 15° C., 31 days",22.2 cm
same,"FW (g), fresh weight","Mo 17 maize inbred line; 15° C., 43 days",5.4 g
same,Length (cm),"Mo 17 maize inbred line; 15° C., 43 days",34.0 cm
same,Length (cm),"Mo 17 maize inbred line; 16° C., 16 days",12.4 cm
same,Length (cm),"Mo 17 maize inbred line; 16° C., 31 days",26.4 cm
same,"FW (g), fresh weight","Mo 17 maize inbred line; 16° C., 43 days",7.7 g
same,Length (cm),"Mo 17 maize inbred line; 16° C., 43 days",42.3 cm
same,Length (cm),"Mo 17 maize inbred line; 17° C., 16 days",17.8 cm
same,Length (cm),"Mo 17 maize inbred line; 17° C., 31 days",29.9 cm
same,"FW (g), fresh weight","Mo 17 maize inbred line; 17° C., 43 days",9.7 g
same,Length (cm),"Mo 17 maize inbred line; 17° C., 43 days",44.3 cm
same,Length (cm),"Mo 17 maize inbred line; 18° C., 16 days",14.6 cm
same,Length (cm),"Mo 17 maize inbred line; 18° C., 31 days",25.0 cm
same,"FW (g), fresh weight","Mo 17 maize inbred line; 18° C., 43 days",7.6 g
same,Length (cm),"Mo 17 maize inbred line; 18° C., 43 days",39.0 cm
same,Weight of the crop (kg/m^2),soybean cv. Bólyi 44,0.52 kg/m^2
same,Improvement compared to the control (%),soybean cv. Bólyi 44,15.5%
"CNC(=NOCCCN1CCCCC1)N(C)c1ccccc1.Cl [Compound 6, N-N′-dimethyl-N′-phenyl-N″-[3-(1-piperidinyl)propoxy]-guanidine hydrochloride]",Ratio of high vigour plants (%),Mo 17 inbred maize line,36* %
"CCCCCCN(OCC(O)CN1CCCCC1)C(N)=O (stereo not shown) [Compound 8, N-hexyl-N-[2-hydroxy-3-(1-piperidinyl)propoxyl]-urea]",Ratio of high vigour plants (%),Mo 17 inbred maize line,23* %
"CN(C)C(=NOCC(O)CN1CCCCC1)Nc1ccccc1.Cl (stereo not shown) [Compound 9, N,N-dimethyl-N′-phenyl-N″-[2-hydroxy-3-(1-piperidinyl)propoxy]-guanidine hydrochloride]",Ratio of high vigour plants (%),HMv09 inbred maize line,56* %
"Cl.ClC(=NOCCCN1CCCCC1)c1cccs1 [Compound 10, N-[3-(1-piperidinyl)propoxy]-thiophene-2-carboximidoylchloride hydrochloride]",Ratio of high vigour plants (%),HMv09 inbred maize line,45* %
"Cl.c1ccc(N=C(NOCCCN2CCCCC2)c2ccccc2)cc1 [Compound 11, N-[3-(1-piperidinyl)propoxy]-N′-phenyl-benzamidine hydrochloride]",Ratio of high vigour plants (%),HMv09 inbred maize line,53* %
N-[2-hydroxy-3-(1-piperidinyl)propoxy]-ethylurethane [Compound 7],Ratio of high vigour plants (%),Mo 17 inbred maize line,24%
